“Also recorded” adds a separate entry of the source.
Experiments:
[1] = test system: Chromobacterium violaceum (CV026); experiment: Quorum sensing inhibition test with bio-reporter CV026 (TLC overlay); format: cell-based; settings: for Degree of QSI of CV026: Table 1, coumaperine derivatives, 40 mM in ~20 μL acetonitrile dried on TLC plate, overnight, color intensity; for QSI activity against CV026, in words: running text; as to Degree of QSI of CV026: key: −: no inhibition; +: low inhibition; ++: medium inhibition; +++: strong inhibition; as to Degree of quorum sensing inhibition (QSI), CV026: key: −: no inhibition; +: low inhibition; ++: medium inhibition; +++: strong inhibition
Protocol: (§1) TLC preparation: all derivatives were dissolved in 100% acetonitrile to a concentration of 40 mM. Then placed 20 μlon the same spot on the TLC and let the solvent evaporate before use. CV026: few colonies were transferred to liquid LB (Lenox) for overnight incubation at 30° C. in a 45 degree in orbital shaker. At the O.D. 0.8 3 ml of the starter was added to preheated soft LB agar containing 500 nM of 3-oxo-C6 (Sigma-Aldrich). The mixture was then loaded on the TLC in a glass plate for O.N. incubation in 30° C. The next day inhibition zone was measured, while QS is taking place bacteria produce purple pigment, and when QS is inhibited no pigment is produced. KYC55 (pJZ372) (pJZ384) (pJZ410): 20 μl from the frozen stock into 25 ml AT media (AT buffer×20: 1.57 M KH2PO4 pH=7.3. AT salts mix×20: 300 mM (NH4)2SO4, 13 mM MgSO4, 1.4 mM CaCl2, 0.4 mM FeSO4·7H2O, 0.26 mM MnSO4·H2O. AT media: 50 ml×20 AT-buffer, 50 ml×20 AT-salts, 10 ml 50% (w/v) glucose, add 890 ml to final volume of 1 liter.) For O.N. at 30° C. in an orbital shaker. Into preheated water agar with 25 ml AT-buffer, and 60 μg/ml X-gal and 5 nM 3-oxo-c8 (both from Sigma-Aldrich) 25 ml of the starter was added. Then, that mixture was loaded on the TLC in glass plate for O.N. incubation in 30° C. The next day the inhibition zone was measured. The bacteria produce blue pigment during QS and when QS is inhibited no pigment is produced. KYC55 (pJZ372) (pJZ384) (pJZ410) preservation in tetracycline (1 μg/ml), spectinomycin (100 μg/ml), gentamicin (100 μg/ml) (all antibiotics from Sigma Aldrich) in AT media O.N. then centrifuged and suspend in 15% glycerol frozen and maintained at −80° C.

[2] = test system: Agrobacterium tumefaciens (KYC55); experiment: Quorum sensing inhibition test with bio-reporter KYC55 (TLC overlay); format: cell-based; settings: for Degree of QSI of KYC55: Table 1, coumaperine derivatives, 40 mM in ~20 μL acetonitrile dried on TLC plate, overnight, color intensity; for QSI activity against KYC55, in words: running text; as to Degree of QSI of KYC55: key: −: no inhibition; +: low inhibition; ++: medium inhibition; +++: strong inhibition; as to Degree of quorum sensing inhibition (QSI), KYC55: key: −: no inhibition; +: low inhibition; ++: medium inhibition; +++: strong inhibition
Protocol: as §1

[3] = Table 2, piperlongumine derivatives

SMILES | Degree of quorum sensing inhibition (QSI), CV026 [1, 3] | Degree of quorum sensing inhibition (QSI), KYC55 [2, 3] | Degree of QSI of CV026 [1] | QSI activity against CV026, in words [1] | Degree of QSI of KYC55 [2] | QSI activity against KYC55, in words [2] | Degree of quorum sensing inhibition (QSI), CV026 ([1]; Table 3, curcumin derivatives) | Degree of quorum sensing inhibition (QSI), KYC55 ([2]; Table 3, curcumin derivatives)
C=CCNC(=O)/C=C/c1cc(OC)c(OC)c(OC)c1 | − | + |  |  |  |  |  | 
O=C(/C=C/C=C/c1ccc2c(c1)OCO2)N1CCCCC1 [CP-262-F1] |  |  | − | inactive | − | inactive |  | 
COc1cc(/C=C/C(=O)CC(=O)/C=C/c2ccc(OC(C)=O)c(OC)c2)ccc1OC(C)=O [AC-CU, Diacetylated Curcumin] |  |  |  | inactive |  | inactive | − | −
CN(C)c1ccc(/C=C/C=C/C(=O)N2CCCCC2)cc1 [CP-32, (2E,4E)-5-(4-(dimethylamino)phenyl)-1-(piperidin-1-yl)penta-2,4-dien-1-one] |  |  |  | low activity |  | inactivity |  | 
COc1ccc(/C=C/C=C/C(=O)N2CCCCC2)cc1OC [CP-10, (2E,4E)-5-(3,4-dimethoxyphenyl)-1-(piperidin-1-yl)penta-2,4-dien-1-one] |  |  | − | inactive | − | inactive |  | 
COc1cc(/C=C/C=C/C(=O)N2CCCCC2)cc(OC)c1 [CP-193, (2E,4E)-5-(3,5-dimethoxyphenyl)-1-(piperidin-1-yl)penta-2,4-dien-1-one] |  |  | + | low activity | − | inactivity |  | 
COc1cc(/C=C/C(=O)N2CCCCC2)ccc1OC(C)=O [CP-291] |  |  | − | inactive | ++ | moderate activity |  | 
COc1cc(/C=C/C=C/C(=O)N2CCCCC2)cc(OC)c1OC [CP-27, (2E,4E)-1-(piperidin-1-yl)-5-(3,4,5-trimethoxyphenyl)penta-2,4-dien-1-one] |  |  | − | inactive | − | inactive |  | 
O=C(/C=C/C=C/c1ccc(Cl)cc1)N1CCCCC1 [CP-123, (2E,4E)-5-(4-chlorophenyl)-1-(piperidin-1-yl)penta-2,4-dien-1-one] |  |  | − | inactive | + | low activity |  | 
COc1cc(/C=C/C(=O)N2CCCCC2)ccc1O [CP-293] |  |  | − | inactive | − | inactive |  | 
COc1cc(/C=C/C(=O)NCCO)cc(OC)c1OC | − | − |  |  |  |  |  | 
O=C(/C=C/C=C/C=C/c1ccc(O)c(O)c1)N1CCCCC1 [CP-239A, (2E,4E,6E)-7-(3,4-dihydroxyphenyl)-1-(piperidin-1-yl)hepta-2,4,6-trien-1-one] |  |  | − | inactive | − | inactive |  | 
COc1cc(/C=C/C(=O)OC(=O)/C=C/c2cc(OC)c(OC)c(OC)c2)cc(OC)c1OC [PL-16A] | − | − |  | inactive |  | inactive |  | 
COc1cc(/C=C/C(=O)NCC(=O)O)cc(OC)c1OC | − | + |  |  |  |  |  | 
COc1cc(/C=C/C(=O)CC(=O)/C=C/c2ccc(O)c(OC)c2)ccc1O [curcumin, Curcumin, reference compound] |  |  |  | low activity |  | inactive | + | −
O=C(/C=C/C=C/c1ccc(O)cc1)N1CCCCC1 [CP, (2E,4E)-5-(4-hydroxyphenyl)-1-(piperidin-1-yl)penta-2,4-dien-1-one] |  |  |  | low activity |  | inactivity |  | 
COc1cc(/C=C/C(=O)N2CCCCC2)cc(OC)c1OC | − | − |  |  |  |  |  | 

SMILES | Degree of quorum sensing inhibition (QSI), CV026 [1, 3] | Degree of quorum sensing inhibition (QSI), KYC55 [2, 3] | Degree of QSI of CV026 [1] | QSI activity against CV026, in words [1] | Degree of QSI of KYC55 [2] | QSI activity against KYC55, in words [2] | Degree of quorum sensing inhibition (QSI), CV026 ([1]; Table 3, curcumin derivatives) | Degree of quorum sensing inhibition (QSI), KYC55 ([2]; Table 3, curcumin derivatives)
COc1cc(/C=C/C(=O)NC(C)C)cc(OC)c1OC | − | − |  |  |  |  |  | 
COc1cc(/C=C/C(=O)N2CCCCC2=O)cc(OC)c1OC [PL-31] | + | − |  | low activity |  | inactive |  | 
COc1cc(/C=C/C(=O)NCCc2ccc(O)c(O)c2)cc(OC)c1OC | − | − |  |  |  |  |  | 
CCNC(=O)/C=C/c1cc(OC)c(O)c(OC)c1 | − | − |  |  |  |  |  | 
O=C(/C=C/C=C/c1ccc(OC2CCCC2)cc1)N1CCCCC1 [CP-184, (2E,4E)-5-(4-(cyclopentyloxy)phenyl)-1-(piperidin-1-yl)penta-2,4-dien-1-one] |  |  | − | inactive | − | inactive |  | 
COc1cc(/C=C/C(=O)NCCCCC(=O)O)cc(OC)c1OC | − | − |  |  |  |  |  | 
CCNC(=O)/C=C/c1cc(OC)c(OC)c(OC)c1 [PL-17, (E)-N-ethyl-3-(3,4,5-trimethoxyphenyl)acrylamide] | − | − |  | inactive |  | inactive |  | 
COc1cc(CCC(=O)CC(=O)CCc2ccc(OC(C)=O)c(OC)c2)ccc1OC(C)=O [AC-THC, Diacetylated Tetrahydrocurcumin] |  |  |  | inactive |  | inactive | − | −
COc1cc(/C=C/C(=O)NCCc2ccc(O)cc2)cc(OC)c1OC | − | − |  |  |  |  |  | 
O=C(/C=C/C=C/c1cc(O)c(O)c(O)c1)N1CCCCC1 [CP-262-F2, (2E,4E)-1-(piperidin-1-yl)-5-(3,4,5-trihydroxyphenyl)penta-2,4-dien-1-one] |  |  | − | inactive | + | low activity |  | 
O=C(CCCCc1ccc2c(c1)OCO2)N1CCCCC1 [CP-THP, Tetrahydro Piperine] |  |  | + | low activity | + | low activity |  | 
COc1ccc(/C=C/C=C/C(=O)N2CCCCC2)c(OC)c1OC [CP-50, (2E,4E)-1-(piperidin-1-yl)-5-(2,3,4-trimethoxyphenyl)penta-2,4-dien-1-one] |  |  | − | inactive | − | inactive |  | 
COc1ccc(/C=C/C=C/C=C/C(=O)N2CCCCC2)cc1 [CP-102, (2E,4E,6E)-7-(4-methoxyphenyl)-1-(piperidin-1-yl)hepta-2,4,6-trien-1-one] |  |  | ++ | moderate | + | low |  | 
COc1cc(OC)c(/C=C/C=C/C(=O)N2CCCCC2)c(OC)c1 [CP-194, (2E,4E)-1-(piperidin-1-yl)-5-(2,4,6-trimethoxyphenyl)penta-2,4-dien-1-one] |  |  | − | inactive | − | inactive |  | 
O=C(/C=C/C=C/c1ccc(O)c(O)c1)N1CCCCC1 [CP-209, (2E,4E)-5-(3,4-dihydroxyphenyl)-1-(piperidin-1-yl)penta-2,4-dien-1-one] |  |  | + | low activity; also recorded: inactive | + | low activity; also recorded: inactive |  | 
O=C(/C=C/c1ccc(O)c(O)c1)N1CCCCC1 [CP-237, (E)-3-(3,4-dihydroxyphenyl)-1-(piperidin-1-yl)prop-2-en-1-one] |  |  | ++ | moderate activity | ++ | moderate activity |  | 
